# System: Plasmodium berghei
# Assay: Luciferase/luciferin-expressing antifolate-resistant parasites were used to infect a culture of HepG2 cells that were pre-incubated with compounds. Infected hepatocytes emit light due to the luciferase reaction. Assay results are presented as the percent inhibition of light emission compared to control. […]
# Format: functional
# Details: sporozoite; for IC50: read-out: LUCIFERASE INFECTION ASSAY - IC50; for IC90: read-out: LUCIFERASE INFECTION ASSAY - IC90
SMILES,IC50 [µM],IC90 [µM]
COC(=O)c1cc2c(N)c(C(=O)c3ccc(Cl)cc3)sc2nc1C(OC)OC,> 7.84,> 7.84
C=CCn1c(O)nnc1Sc1ncc([N+](=O)[O-])s1,> 11.6,> 11.6
COc1ccc(CCN=C(S)Nc2ccccc2C)cc1,> 11,> 11
Cc1ccc(C(=N)NOC(=O)c2cccc(Cn3cc(C(F)(F)F)ccc3=O)c2)cc1,> 7.69,> 7.69
COC(OC)c1ccc(C#N)c(SCC(=O)c2ccc(Cl)cc2)n1,> 9.1,> 9.1
Cc1ccc(OCC(=O)NS(=O)(=O)c2ccccc2)cc1,> 10.8,> 10.8
Cc1nc(C(N)=NOC(=O)c2c(-c3ccccc3Cl)noc2C)cs1,> 8.76,> 8.76
CC(C)c1ccc(NC(=O)CSc2nccc(-c3csc(COc4ccccc4Cl)n3)n2)cc1,> 6.46,> 6.46
O=[N+]([O-])c1cnc(Sc2nnc(O)n2-c2ccc(OCc3ccccc3)cc2)s1,3.81,> 7.72
Cc1nnc(Sc2ncc([N+](=O)[O-])s2)n1-c1ccc(OCc2ccccc2)cc1,> 7.76,> 7.76
COc1ccc(Cl)cc1NC(=O)N1CCC(Cc2ccccc2)CC1,> 9.2,> 9.2
Cc1nc(SCc2ccc(C(F)(F)F)cc2)n(C)c(=O)c1Oc1ccc(F)cc1,> 7.78,> 7.78
Cn1c(Sc2cnc(SCc3ccc(Cl)cc3)nc2-c2ccccc2)nnc1C(F)(F)F,> 6.68,> 6.68
CCOC(=O)c1cc(Sc2ccccc2NC(=O)Nc2ccc(C)cc2)cc(C(=O)OCC)n1,> 6.88,> 6.88
CC(C)(C)c1ccc(OCC(=N)NC(=O)c2ccc(OC(F)(F)F)cc2)cc1,> 8.37,> 8.37
CN(CCOC(=O)Nc1cc(Cl)cc(Cl)c1)c1ncc(C(F)(F)F)cc1Cl,> 7.46,> 7.46
CCn1nc(C)cc1-c1nnc(SCc2ccccc2)n1-c1cccc(C(F)(F)F)c1,> 7.44,> 7.44
Clc1ccc(-c2nnc(Sc3nc(-c4cccs4)ns3)[nH]2)cc1,> 8.73,> 8.73
COC(=O)c1cnc(Sc2n[nH]c(=O)n2C2CCCCC2)c([N+](=O)[O-])c1,> 8.7,> 8.7
COC(=O)c1cnc(Sc2n[nH]c(=O)n2-c2ccc(Cl)cc2)c([N+](=O)[O-])c1,> 8.09,> 8.09
Cc1noc(-c2ccc(Cl)cc2)c1C(=O)ONC(=N)c1ccc(C(F)(F)F)cc1,> 7.79,> 7.79

SMILES,IC50 [µM],IC90 [µM]
O=C(Nc1cccc(Cl)c1)n1nccc1-c1cc(-c2ccccc2)no1,> 9.05,> 9.05
Cc1noc(-c2ccc(C(F)(F)F)cc2)c1NC(=O)Nc1cc(Cl)cc(Cl)c1,0.395,1.05
Cc1cc(NC(=O)COc2ccc(C(C)C)cc2)no1,> 12,> 12
Cn1ccnc1Sc1cnc(SCC(=O)c2ccc(Cl)cc2)nc1-c1ccccc1,> 7.28,> 7.28
CCn1nc(C)c([N+](=O)[O-])c1C(=O)Sc1cccc(Br)c1,> 8.91,> 8.91
FC(F)(F)c1csc(Nc2ccc(Cl)c(Cl)c2)n1,10.4,> 10.5
Cc1ccc(Cn2nc(C)cc2C(=O)Sc2ccccc2)cc1,> 10.2,> 10.2
Cc1ccccc1N1CCCn2c1nc1c2c(=O)[nH]c(=O)n1C,> 10.6,> 10.6
Clc1cc(Cl)cc(-c2nnc(Sc3nc(-c4cccs4)ns3)[nH]2)c1,> 8,> 8
Cc1ccc(CSc2n[nH]c(=O)n2C2CC3C=CC2C3)cc1 (configuration not stated),> 10.5,> 10.5
Cc1ccc(CSc2nc(C)c(Oc3ccc(F)cc3)c(=O)n2C)cc1,> 8.91,> 8.91
COc1ccccc1Nc1nc(-c2c(-c3ccc(Cl)cc3Cl)noc2C)cs1,2.27,7.32
CCOC(=O)c1cc(C#N)c(Sc2n[nH]c(=O)n2Cc2ccccc2)nc1C(F)(F)F,> 7.34,> 7.34
C/C(=N\OC(=O)Nc1ccccc1)c1sc2nc(C(F)(F)F)nn2c1C,> 8.61,> 8.61
CC(C)(C)c1cc(C(=O)NNC(=O)Nc2cccc(C(F)(F)F)c2)n(Cc2ccccc2)n1,> 7.18,> 7.18
C/C(=N\NC(=S)NC(C)(C)C)c1ccc(OCc2ncc(C(F)(F)F)cc2Cl)cc1,0.801,0.938
Cc1nnsc1-c1onc(C)c1C(=O)NC(=O)Nc1ccccc1,4.69,> 9.61
FC(F)(F)c1cc(Nc2nc(-c3cc(-c4ccc(Cl)cc4Cl)no3)cs2)cc(C(F)(F)F)c1,> 6.29,> 6.29
O=C(CSc1nnc(-c2ccco2)n1-c1ccc(OCc2ccccc2)cc1)c1ccc(Cl)cc1,> 6.57,> 6.57
CC(C)(C)c1ccc(-c2nnc(SCc3c(Cl)cccc3Cl)n2Cc2ccco2)cc1,3.43,> 6.99
O=C(NNC(=S)Nc1cccc(C(F)(F)F)c1)c1ccc(OC(F)(F)F)cc1,> 7.8,> 7.8

SMILES,IC50 [µM],IC90 [µM]
O=C(Nc1cccc(Cl)c1)Nc1ccccc1SCc1ncc(C(F)(F)F)cc1Cl,> 6.99,> 6.99
COC(=O)c1cc(C#N)c(SCC(=O)c2ccc(Cl)cc2)nc1C(OC)OC,> 7.84,> 7.84
CCOC(=O)c1cc(C#N)c(N2CCN(S(=O)(=O)c3ccccc3Cl)CC2)nc1C(F)(F)F,> 6.56,> 6.56
O=C(Cc1cc(Br)sc1Br)Nc1cccc(C(F)(F)F)c1,> 7.45,> 7.45
CC(C)c1ccc(NC(=O)CCCc2ccccc2)cc1,> 11.7,> 11.7
FC(F)(F)c1cccc(NC(=S)Nc2cccnc2N2CCC(C(F)(F)F)CC2)c1,> 7.36,> 7.36
O=C(Nc1ccc(Cl)cc1)n1ncc(Sc2ccc(Cl)cc2)c1-c1ccc(Cl)cc1,> 6.95,> 6.95
CC(C)(C)c1ccc(NC(=O)c2sc3nc4c(c(-c5cccnc5)c3c2N)CCC4)cc1,> 7.46,> 7.46
CC(C)(C)c1cc(C(=O)NNC(=O)c2ccc(C(F)(F)F)cc2)n(Cc2ccccc2)n1,> 7.42,> 7.42
CC(C)(C)NC(=O)c1cc(-c2ccccc2Cl)nc2ccccc12,> 9.74,> 9.74
CC(C)c1ccc(NC(=O)Nc2csc(Cc3c(Cl)cccc3Cl)n2)cc1,> 7.85,> 7.85
Cc1nn(CC(=O)Nc2cccc(Cl)c2)c(C)c1Oc1ccccc1,5.38,> 9.27
Cc1ccc(NC(=O)c2csc(Cc3c(Cl)cccc3Cl)n2)cc1,> 8.75,> 8.75
FC(F)(F)c1cc(Nc2ncc(-c3ccc4c(c3)OCCCO4)s2)cc(C(F)(F)F)c1,5.2,> 7.17
Nc1cc(C(F)(F)F)cnc1Nc1ccc(Cl)cc1,> 11.5,> 11.5
O=C(O)COc1ccccc1/C=C1\NC(=S)NC1=O,> 10,> 10
Cc1nn(CC(=O)Nc2cccc(C(F)(F)F)c2)c(C)c1Oc1ccccc1,3.94,8.01
COC(=O)c1cnc(Sc2n[nH]c(=O)n2-c2cccc(C(F)(F)F)c2)c([N+](=O)[O-])c1,> 7.48,> 7.48
Cc1cccc(Cn2nc(C(C)(C)C)cc2-c2nnc(SCc3ccccc3)n2C2CCCCC2)c1,> 6.6,> 6.6
